Source: US20040167162A1, “Uses for anti-malarial therapeutic agents” (priority 2001, published 2004)
Where a name gives a salt, the structure may show the parent alone. Read-outs that look alike come from different tables or passages of the source.

What was measured:
adenovirus = conditions: cited from earlier work
influenza viruses = conditions: cited from earlier work
human corona virus = conditions: cited from earlier work
rhinovirus [1] = conditions: in particular human tracheal epithelial cells, rhinovirus group 14; cited from earlier work
ICAM-1 = conditions: treated cells; cited from earlier work
rhinovirus [2] = test: Blocking of rhinovirus infection of epithelial cells; effective inhibitory concentrations (Tables 1 and 2, FIG. 3); format: cell-based
Text: (§1) Rhinovirus capable of viral replication causes the release of the pro-inflammatory […] chemokines, IP-10 and RANTES from infected epithelial cells.
(§2) For purposes of illustration, the effects of targeted delivery as opposed to systemic delivery of a representative anti-malarial, hydroxychloroquine, for prevention of rhinovirus infection is compared. As shown in Tables 1 and 2 and in FIG. 3, the effective inhibitory concentrations of this agent ranges from about 50 to 1000 microM (or about 20 to 400 micrograms/ml). Safe oral dosing of anti-malarials, such as chloroquine and hydroxychloroquine yields serum levels far below these ranges: 0.6 to 0.9 microM for chloroquine and 1.4 to 1.5 microM for hydroxychloroquine (MacKenzie, A H, “Pharmacologic actions of the 4-aminoquinoline compounds”, Am J Med, 1983, July: 5-10). Moreover, the inventor has noted that oral or systemic administration of HCQ cannot provide adequate plasma levels of HCQ to achieveefficacious results. Even at doses nearly twice that used in humans, peak serum concentrations following intravenous of administration of 10 mg/kg HCQ in rats was only 2 mcg/ml (FIG. 4); in dogs, peak whole blood concentrations were less than 3 mcg/ml (FIG. 5).

[3] = cited from earlier work
IP-10/RANTES = test: Effect of HCQ on IP-10/RANTES production in primary human epithelial cells with exposure to HRV-16; format: cell-based
Text: FIG. 1 graphically depicts the effect of 50 μm HCQ in the elaboration of IP-10 and RANTES in primary human epithelial cells with exposure to human rhinovirus type 16.
as §1
(§3) For example, treatment with hydroxychloroquine blocks the elaboration of the pro-inflammatory chemokines, IP-10 and RANTES from both primary tonsillar and immortalized epithelial cell lines (Table 1 & 2, FIG. 1 & 2). Since these chemokines figure prominently in generation of inflammatory responses and symptoms, this effect has important therapeutic implications.

IP-10 and RANTES = test: HCQ preincubation of BEAS-2B epithelial cells exposed to HRV-16, assayed for IP-10 and RANTES; format: cell-based, human; conditions: for IP-10: 6 hours preincubation / IP-10: 24 hours preincubation / RANTES: 6 hours preincubation: BEAS-2B
Protocol: FIG. 2 depicts graphically the effect of varying concentrations of HCQ preincubation on the elaboration of […] and RANTES in BEAS-2B epithelial cells exposed to human rhinovirus-16.
as §1, §3

Eosinophil = Eosinophil total superoxide production (FIG. 3); format: cell-based
Text: FIG. 3 graphically depicts the effect of HCQ on Eosinophil total Superoxide production. In FIG. 3, nil refers to control, i.e., the absence of HCQ; PMA refers to phorbol myristic acetate; PAF refers to platelet activating factor, and SE refers to standard error of the mean. The data in FIG. 3 are presented as means±SE; n=3. The * indicates p<0.05; ** indicates p<0.01.
Anti-malarial agents also block the secondary aspects of rhinovirus infections. Without wishing to be bound, it is believed that they are inhibit by blocking the secondary events of viral infections.

[4] = parameters: species or system rats; conditions: rat, in vivo, iv, 10 mg/kg
Text: FIG. 4 graphically depicts the mean whole blood concentration of HCQ following single day intravenous doses to male and female rats.
as §2

[5] = parameters: species or system dogs; conditions: dog, in vivo, iv
Text: FIG. 5 graphically depicts the mean whole blood concentration of HCQ following single day intravenous doses to male and female dogs.
as §2

[6] = tested on: antigen-induced early (EAR) and late airway responses (LAR) and airway hyperresponsiveness (AHR); conditions: aerosolized; total dose of only 10 mg/d; cited from earlier work
asthma = conditions: oral; cited from earlier work
[7] = in vivo, po; cited from earlier work

With `Cl.N` [ammonium chloride] as the molecule, how does the “cellular infection by adenovirus” value (adenovirus) read?
The value was “block cellular infection”.

And the “cellular infection by influenza viruses” value (influenza viruses)?
The value was “block cellular infection”.

What about the “infection of human corona virus” value (human corona virus) of the same molecule?
Its value is “block infection”.

Which “cellular infection by adenovirus” value (adenovirus) does the source give for `CO/C1=C\C(C)=C\[C@@H](C)[C@@H](O)[C@@H](C)C/C(C)=C/C=C/[C@H](OC)[C@@H]([C@@H](C)[C@@H](O)[C@H](C)[C@@]2(O)C[C@@H](O)[C@H](C)[C@@H](C(C)C)O2)OC1=O` [bafilomycin A1] here?
Its value is “block cellular infection”.

What about the “cellular infection by influenza viruses” value (influenza viruses) of the same molecule?
Its value is “block cellular infection”.

And the “infection of human corona virus” value (human corona virus)?
Its value is “block infection”.

And the infection by rhinovirus (rhinovirus [1])?
Its infection by rhinovirus is “inhibit infection”.

What about the “expression of ICAM-1” value (ICAM-1) of the same molecule?
Its value is “reduces expression”.

For `CCN(CC)CCCC(C)Nc1ccnc2cc(Cl)ccc12` (stereo not shown) [chloroquine], which “rhinovirus infection of epithelial cells” value (rhinovirus [2]) is on record?
The value was “block rhinovirus infection”.

And the “cellular infection by adenovirus” value (adenovirus)?
The value was “block cellular infection”.

What about the “cellular infection by influenza viruses” value (influenza viruses) of the same molecule?
The value was “block cellular infection”.

Which solubility in water [3] does the source give for `CCN(CCO)CCCC(C)Nc1ccnc2cc(Cl)ccc12` (stereo not shown) [hydroxychloroquine sulfate] here?
The solubility in water was “readily soluble in water”.

Which results are given for hydroxychloroquine [HCQ]?
IP-10: hours of preincubation 24 (IP-10/RANTES; HRV-16 + 50 microM HCQ, 24 hours of preincubation, primary human epithelial cells): 31 pg/mL; IP-10: hours of preincubation 48 (IP-10/RANTES; HRV-16 + 50 microM HCQ, 48 hours of preincubation, primary human epithelial cells): 112 pg/mL; RANTES: hours of preincubation 48 (IP-10/RANTES; HRV-16 + HCQ, 48 hours of preincubation, primary human epithelial cells): 509 pg/mL; release of pro-inflammatory CXC chemokines (IP-10/RANTES; primary epithelial cells treated, then infected with RV): do not release; IP-10: 6 hours preincubation (IP-10 and RANTES; HRV-16 + 0.01 μM HCQ): 3084 pg/mL; IP-10: 24 hours preincubation (IP-10 and RANTES; HRV-16 + 0.01 μM HCQ): 2506 pg/mL; RANTES: 6 hours preincubation (IP-10 and RANTES; HRV-16 + 0.01 μM HCQ): 3326 pg/mL; IP-10: 6 hours preincubation (IP-10 and RANTES; HRV-16 + 0.1 μM HCQ): 2914 pg/mL; IP-10: 24 hours preincubation (IP-10 and RANTES; HRV-16 + 0.1 μM HCQ): 1814 pg/mL; RANTES: 6 hours preincubation (IP-10 and RANTES; HRV-16 + 0.1 μM HCQ): 3128 pg/mL; IP-10: 6 hours preincubation (IP-10 and RANTES; HRV-16 + 1 μM HCQ): 3045 pg/mL; IP-10: 24 hours preincubation (IP-10 and RANTES; HRV-16 + 1 μM HCQ): 2098 pg/mL; RANTES: 6 hours preincubation (IP-10 and RANTES; HRV-16 + 1 μM HCQ): 1994 pg/mL; IP-10: 6 hours preincubation (IP-10 and RANTES; HRV-16 + 50 μM HCQ): 31 pg/mL; IP-10: 24 hours preincubation (IP-10 and RANTES; HRV-16 + 50 μM HCQ): 31 pg/mL; RANTES: 6 hours preincubation (IP-10 and RANTES; HRV-16 + 50 μM HCQ): 0 pg/mL; release of pro-inflammatory CXC chemokines (IP-10 and RANTES; pre-incubation of immortalized epithelial cells (BEAS-2B)): has the same effect; concentration at which IL-5 or PAF induced eosinophil superoxide is inhibited (Eosinophil): at least 0.5 mM; concentration at which IL-5 or PAF induced eosinophil superoxide is inhibited (Eosinophil; conversion of the mM value): about 200 mcg/ml; rhinovirus infection of epithelial cells (rhinovirus [2]): block rhinovirus infection; peak serum concentrations [4]: 2 µg/mL; peak whole blood concentrations [5]: less than 3 mcg/ml; effect in asthmatic sheep [6]: therapeutic effects; time of treatment after which therapeutic effect begins (asthma): > 22 weeks; serum levels [7]: 1400 to 1500 nM
